Test results published in patent US20190298718A1, “DOSING REGIMEN” (Cyclacel Limited, priority 2017, published 2019).
Read-outs that look alike come from different tables or passages of the source.

Assays:
colon cancer = details: model of colon cancer; cited from earlier work
[1] = phase I, patients with a variety of cancers; cited from earlier work
AML cell lines = assay: Combination of CNDAC with hypomethylating agents in AML cell lines; format: cell-based; details: more apparent if cells are treated with hypomethylating agents first
Experimental: Previous studies by the applicant have shown that in AML cell lines, the active metabolite of sapacitabine, CNDAC, is synergistic with hypomethylating agents and the synergy is more apparent if cells are treated with hypomethylating agents first. The present invention relates to the identification of new and previously undefined subgroups of AML patients for which treatment with an alternating regimen of sapacitabine and decitabine is particularly effective.

[2] = system: acute myeloid leukemia (AML); format: in vivo, human
Experimental: WBC count can be determined, by any suitable institutional standard protocol. By way of example, suitable methods are described in Blumenreich [Reference 12] or Shafer [Reference 13], the contents of which are incorporated by reference.
SWOG classification was determined according to the criteria set out in Table 6 (Slovak et al, Reference 1; the contents of which are incorporated by reference). Cytogenetic testing can be carried out on peripheral blood, for example, in accordance with the standard methodology set forth in Slovak et al [Reference 1] or on bone marrow. Karyotyping or routine cytogenetic analysis involves the examination of chromosomes to identify structural abnormalities. Conventional cytogenetics (karyotyping) is the standard cytogenetic analysis for identifying gross chromosomal abnormalities: aneuploidies & structural (gain/loss, rearrangement). Chromosomes of a dividing human cell can be analysed clearly in white blood cells, specifically T lymphocytes, which are easily collected from blood. Cells from other tissues such as bone marrow, amniotic fluid, and other tissues can also be cultured for cytogenetic analysis. Cells from bone marrow are cultured for several days. Chromosomes in the growing and dividing cells are then fixed, spread on microscope slides, and stained to allow each of the chromosomes to be individually identified. Cytogenetic study was performed using the standard G-banding method (Reference 22, the contents of which are incorporated by reference). […] Findings based on the FISH technique were used as considered supportive information (FISH analysis is based on probes directed to specific chromosomal regions (molecular cytogenetics)) (Reference 22).

[3] = system: cell line that is resistant to cytarabine; details: cited from earlier work
[4] = Antecedent MDS/MPN No and WBC ≥10,000
[5] = Antecedent MDS/MPN Yes and WBC <10,000
[6] = SWOG Not unfavourable and WBC <10,000
[7] = SWOG Unfavourable and WBC ≥10,000

CCCCCCCCCCCCCCCC(=O)Nc1ccn([C@@H]2O[C@H](CO)[C@@H](O)[C@@H]2C#N)c(=O)n1 [(I), 1-(2-C-cyano-2-deoxy-β-D-arabino-pentofuranosyl)-N^4-palmitoyl cytosine]
anticancer activity (colon cancer): strong | increasing survival and preventing the spread of colon cancer metastases to the liver, compared with gemcitabine or 5-FU (colon cancer): superior | dose-limiting toxicity [1]: myelosuppression | tolerability [1]: well tolerated

N#C[C@H]1[C@H](O)[C@@H](CO)O[C@H]1n1ccc(N)nc1=O [CNDAC, 2′-C-cyano-2′-deoxy-1-β-D-arabino-pentofuranosyl cytosine]
interaction with hypomethylating agents (AML cell lines): synergistic

Nc1ncn([C@H]2C[C@H](O)[C@@H](CO)O2)c(=O)n1 [Decitabine, 4-amino-1-(2-deoxy-β-D-erythro-pentofuranosyl)-1,3,5-triazin-2(1H)-one]
1-year survival (%) [2, 4]: 36.7% | Median overall survival months [2, 4]: 5.5 months | 1-year survival (%) [2, 5]: 27.5% | CR rate (%) [2, 5]: 2.5% | Median overall survival months [2, 5]: 4.9 months | 1-year survival (%) ([2]; Antecedent MDS/MPN: No): 35.5% | Median overall survival months ([2]; Antecedent MDS/MPN: No): 6.7 months | 1-year survival (%) ([2]; Antecedent MDS/MPN: Yes): 32.9% | CR median duration, months ([2]; Antecedent MDS/MPN: Yes): 7.1 months | CR rate (%) ([2]; Antecedent MDS/MPN: Yes): 5.7% | Median overall survival months ([2]; Antecedent MDS/MPN: Yes): 5.0 months | 1-year survival (%) [2, 6]: 31.8% | CR rate (%) [2, 6]: 5.7% | Median overall survival months [2, 6]: 5.6 months | 1-year survival (%) [2, 7]: 30.0% | CR rate (%) [2, 7]: 0% | Median overall survival months [2, 7]: 3.0 months | 1-year survival (%) ([2]; SWOG category Not Unfavourable): 35.9% | Median overall survival months ([2]; SWOG category Not Unfavourable): 5.7 months | 1-year survival (%) ([2]; SWOG category Unfavourable): 33.0% | CR rate (%) ([2]; SWOG category Unfavourable): 9.6% | Median overall survival months ([2]; SWOG category Unfavourable): 5.7 months | Median overall survival ([2]; all randomized patients (n=241 per arm)): 5.7 months | Patients aged 80 and over, median overall survival, months ([2]; patients aged 80 and over with <10,000 WBC): 4.2 months | 1-year survival (%) ([2]; patients with <10,000 WBC): 32.9% | CR rate (%) ([2]; patients with <10,000 WBC): 8.6% | Median overall survival months ([2]; patients with <10,000 WBC): 5.8 months | 1-year survival (%) ([2]; patients with ≥10,000 WBC): 38.5% | Median overall survival months ([2]; patients with ≥10,000 WBC): 5.5 months

Nc1ccn([C@@H]2O[C@H](CO)[C@@H](O)[C@@H]2O)c(=O)n1 [cytarabine]
IC50 ([3]; after 5-azacitidine (upregulation of dCK)): 0.55 µM | IC50 ([3]; before 5-azacitidine): 12.5 µM
